These results are taken from patent publication US20240228489A1, “POSITIVE ALLOSTERIC MODULATORS OF THE MUSCARINIC ACETYLCHOLINE RECEPTOR M1” (Vanderbilt University, priority 2021, published 2024).

SMILES strings stand for the structures. Where only a bound is given, the exact number is not on record here.

For test [1], the target named is T1, human mAChR M1 (Homo sapiens, UniProt P11229).
T1 sequence (P11229 1-460): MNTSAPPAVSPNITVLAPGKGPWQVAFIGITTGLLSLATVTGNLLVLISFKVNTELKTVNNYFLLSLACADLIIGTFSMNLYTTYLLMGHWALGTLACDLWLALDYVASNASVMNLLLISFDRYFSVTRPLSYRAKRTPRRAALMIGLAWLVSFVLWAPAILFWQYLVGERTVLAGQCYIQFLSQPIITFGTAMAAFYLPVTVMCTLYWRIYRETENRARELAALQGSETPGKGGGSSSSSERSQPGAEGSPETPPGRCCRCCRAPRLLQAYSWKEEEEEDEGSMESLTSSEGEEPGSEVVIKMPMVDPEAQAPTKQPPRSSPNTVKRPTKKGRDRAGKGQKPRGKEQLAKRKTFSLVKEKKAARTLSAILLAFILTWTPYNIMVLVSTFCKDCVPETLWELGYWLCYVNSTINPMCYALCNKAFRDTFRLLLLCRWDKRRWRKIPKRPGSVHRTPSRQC
The experiment in a line: mAChR M1 cell-based functional assay (calcium mobilization), PAM mode: increase in the EC20 acetylcholine response. The source says:
(§1) Chinese hamster ovary (CHO-K1) cells stably expressing rat (r)M1 were purchased from the American Type Culture Collection and cultured according to their indicated protocol. CHO cells stably expressing human (h)M2, hM3, and hM5 were described previously (Levey, et al., 1991); hM1 and hM4 cDNAs were purchased from Missouri S&T cDNA Resource; rM4 cDNA was provided by T. I. Bonner (National Institutes of Health, Bethesda, MD). rM2 and rM3 were cloned from a rat brain cDNA library and sequence verified. hM1, rM2, rM3, hM4, and rM4 cDNAs were used to stably transfect CHO-K1 cells purchased from the American Type Culture Collection using Lipofectamine2000. To make stable rM2, hM2, rM3, hM4, and rM4 cell lines for use in calcium mobilization assays, these cells also were stably transfected with a chimeric G-protein (Gqi5) (provided by B. R. Conklin, University of California, San Francisco) using Lipofectamine 2000. rM1, hM1, rM3, hM3, rM5, and hM5 cells were grown in Ham's F-12 medium containing 10% heat-inactivated fetal bovine serum (FBS), 20 mM HEPES, and 50 μg/mL G418 sulfate. rM2-Gqi5, hM2-Gqi5, and hM4-Gqi5 cells were grown in the same medium also containing 500 μg/mL Hygromycin B. Stable rM4-Gqi5 cells were grown in DMEM containing 10% heat-inactivated FBS, 20 mM HEPES, 400 μg/mL G418 sulfate, and 500 μg/mL Hygromycin B.
(§2) For high throughput measurement of agonist-evoked increases in intracellular calcium, CHO-K1 cells stably expressing muscarinic receptors were plated in growth medium lacking G418 and hygromycin at 15,000 cells/20 μL/well in Greiner 384-well black-walled, tissue culture (TC)-treated, clear-bottom plates (VWR). Cells were incubated overnight at 37° C. and 5% C02. The next day, cells were washed using an ELX 405 (BioTek) with four washes (80 μL) of assay buffer then aspirated to 20 μL. Next, 20 μL of 16 μM Fluo-4/acetoxymethyl ester (Invitrogen, Carlsbad, CA) prepared as a 2.3 mM stock in DMSO and mixed in a 1:1 ratio with 10% (w/v) Pluronic F-127 and diluted in assay buffer was added to the wells and the cell plates were incubated for 50 min at 37° C. and 5% C02. Dye was removed by washing with the ELX 405 (four 80 μL washes of assay buffer) then aspirated to 20 μL. Compound master plates were formatted in an 11 point CRC format (1:3 dilutions) in 100% DMSO with a starting concentration of 10 mM using the BRAVO liquid handler (Agilent). Test compound CRCs were then transferred to daughter plates (240 nL) using the Echo acoustic plate reformatter (Labcyte, Sunnyvale, CA) and then diluted into assay buffer (40 μL) to a 2× stock using a Thermo Fisher Combi (Thermo Fisher Scientific, Waltham, MA).
Calcium flux was measured using the Functional Drug Screening System (FDSS) 6000 (Hamamatsu Corporation, Tokyo, Japan) as an increase in the fluorescent static ratio. Compounds were applied to cells (20 μL, 2×) using the automated system of the FDSS 6000 at 4 s into the 300 s protocol and the data were collected at 1 Hz. At 144 s into the 300 s protocol, 10 μL of an EC20 concentration of the muscarinic receptor agonist acetylcholine was added (5×), followed by the addition of 12 μL of an EC80 concentration of acetylcholine at the 230 s time point (5×). Agonist activity was analyzed as a concentration-dependent increase in calcium mobilization upon compound addition. Emax values for agonist activity are expressed relative to the maximum for acetylcholine. Positive allosteric modulator activity was analyzed as a concentration-dependent increase in the EC20 acetylcholine response. Antagonist activity was analyzed as a concentration-dependent decrease in the EC80 acetylcholine response. Concentration-response curves were generated using a four-parameter logistical equation in XLfit curve fitting software (IDBS, Bridgewater, NJ) for Excel (Microsoft, Redmond, WA) or Prism (GraphPad Software, Inc., San Diego, CA). […]

Test [2] has as its target T1, human mAChR M1. The experiment in a line: mAChR M1 cell-based functional assay (calcium mobilization), agonist mode: compound alone, Emax relative to acetylcholine maximum. To be noted: for Agonist Activity Human M1 EC50 / EC50: human mAChR M1; for Emax: relative to the maximum for acetylcholine.
Source text: as §1, §2
Calcium flux was measured using the Functional Drug Screening System (FDSS) 6000 (Hamamatsu Corporation, Tokyo, Japan) as an increase in the fluorescent static ratio. Compounds were applied to cells (20 μL, 2×) using the automated system of the FDSS 6000 at 4 s into the 300 s protocol and the data were collected at 1 Hz. At 144 s into the 300 s protocol, 10 μL of an EC20 concentration of the muscarinic receptor agonist acetylcholine was added (5×), followed by the addition of 12 μL of an EC80 concentration of acetylcholine at the 230 s time point (5×). Agonist activity was analyzed as a concentration-dependent increase in calcium mobilization upon compound addition. Emax values for agonist activity are expressed relative to the maximum for acetylcholine. Positive allosteric modulator activity was analyzed as a concentration-dependent increase in the EC20 acetylcholine response. Antagonist activity was analyzed as a concentration-dependent decrease in the EC80 acetylcholine response. Concentration-response curves were generated using a four-parameter logistical equation in XLfit curve fitting software (IDBS, Bridgewater, NJ) for Excel (Microsoft, Redmond, WA) or Prism (GraphPad Software, Inc., San Diego, CA).

For orientation: EC50 means the concentration that produces a half-maximal response. One may read the Emax as the size of the effect at its maximum, as opposed to the concentration needed. For `[2H]C1([2H])c2ncccc2C(=O)N1Cc1ccc(-c2cnc3nn(C)cc3c2)cc1F` [Compound 21, 6-(2-fluoro-4-(2-methyl-2H-pyrazolo[3,4-b]pyridin-5-yl)benzyl)-6,7-dihydro-5H-pyrrolo[3,4-b]pyridin-5-one-7,7-d2], on human mAChR M1 [1], the EC50 is 2.42 µM and the maximum response (Emax) came out at 76%. For the same compound, at human mAChR M1 [2], the “Agonist Activity Human M1 EC50” value is given as “Inactive” and the maximum response (Emax) turned out to be 6%.

In the case of `[2H]C1([2H])c2ncccc2C(=O)N1Cc1ccc(-c2ccnc3nn(C)cc23)cc1F` [Compound 22, 6-(2-fluoro-4-(2-methyl-2H-pyrazolo[3,4-b]pyridin-4-yl)benzyl)-6,7-dihydro-5H-pyrrolo[3,4-b]pyridin-5-one-7,7-d2], at human mAChR M1 [1], the EC50 worked out at 1.94 µM and the Emax came out at 74%. Moreover, at human mAChR M1 [2], the “Agonist Activity Human M1 EC50” value is reported as “Inactive” and the Emax stood at 6%.

With `[2H]C1([2H])c2ncccc2C(=O)N1Cc1ccc(-c2cccc3nn(C)cc23)cc1F` [Compound 23, 6-(2-fluoro-4-(2-methyl-2H-indazol-4-yl)benzyl)-6,7-dihydro-5H-pyrrolo[3,4-b]pyridin-5-one-7,7-d2], at human mAChR M1 [1], the EC50 was determined as 1.13 µM and the Emax turned out to be 76%. On human mAChR M1 [2], the “Agonist Activity Human M1 EC50” value was “Inactive” and the Emax amounted to 7%.

Take `[2H]C1([2H])c2ncccc2C(=O)N1Cc1ccc(-c2cc3cn(C)nc3cc2F)cc1F` [Compound 24, 6-(2-fluoro-4-(6-fluoro-2-methyl-2H-indazol-5-yl)benzyl)-6,7-dihydro-5H-pyrrolo[3,4-b]pyridin-5-one-7,7-d2]: on human mAChR M1 [1], the concentration for a half-maximal effect (EC50) is 3.6 µM and the Emax came out at 69%. For the same compound, at human mAChR M1 [2], the “Agonist Activity Human M1 EC50” value was “Inactive” and the Emax amounted to 2%.

Take `[2H]C1([2H])c2ncccc2C(=O)N1Cc1ccc(-c2cc(C)c3nn(C)cc3c2)cc1F` [Compound 25, 6-(4-(2,7-dimethyl-2H-indazol-5-yl)-2-fluorobenzyl)-6,7-dihydro-5H-pyrrolo[3,4-b]pyridin-5-one-7,7-d2]: at human mAChR M1 [1], the half-maximal effective concentration (EC50) amounted to 1.07 µM and the Emax was determined as 76%. At human mAChR M1 [2], the “Agonist Activity Human M1 EC50” value is on record as “Inactive” and the Emax is 4%.

As to `[2H]C1([2H])c2ncccc2C(=O)N1Cc1ccc(-c2cc3cn(C)nc3cc2C)cc1F` [Compound 26, 6-(4-(2,6-dimethyl-2H-indazol-5-yl)-2-fluorobenzyl)-6,7-dihydro-5H-pyrrolo[3,4-b]pyridin-5-one-7,7-d2], on human mAChR M1 [1], the EC50 was 7.58 µM and the Emax was 58%. In addition, at human mAChR M1 [2], the “Agonist Activity Human M1 EC50” value is recorded as “Inactive” and the Emax was 3%.

As for `[2H]C1([2H])c2ncccc2C(=O)N1Cc1c(F)cc(-c2ccc(C)c3nn(C)cc23)cc1F` [Compound 27, 6-(4-(2,7-dimethyl-2H-indazol-4-yl)-2,6-difluorobenzyl)-6,7-dihydro-5H-pyrrolo[3,4-b]pyridin-5-one-7,7-d^2], at human mAChR M1 [1], the EC50 stood at 0.542 µM and the maximum response (Emax) turned out to be 84%. Moreover, at human mAChR M1 [2], the “Agonist Activity Human M1 EC50” value is recorded as “Inactive” and the Emax turned out to be 4%.

In the case of `[2H]C1([2H])c2ncccc2C(=O)N1Cc1ccc(-c2ccc(C)c3nn(C)cc23)cc1F` [Compound 28, 6-(4-(2,7-dimethyl-2H-indazol-4-yl)-2-fluorobenzyl)-6,7-dihydro-5H-pyrrolo[3,4-b]pyridin-5-one-7,7-d2], at human mAChR M1 [1], the EC50 worked out at 0.535 µM and the maximum response (Emax) is 80%. In addition, at human mAChR M1 [2], the EC50 is 6.24 µM and the maximal effect (Emax) worked out at 28%.

Take `[2H]C1([2H])c2ncccc2C(=O)N1Cc1ccc(-c2cccc3nn(C)cc23)cc1C` [Compound 29, 6-(2-methyl-4-(2-methyl-2H-indazol-4-yl)benzyl)-6,7-dihydro-5H-pyrrolo[3,4-b]pyridin-5-one-7,7-d2]: at human mAChR M1 [1], the EC50 worked out at 0.632 µM and the Emax was determined as 81%. For the same compound, on human mAChR M1 [2], the EC50 is 7.86 µM and the Emax was 33%.

For `[2H]C1([2H])c2ncccc2C(=O)N1Cc1ccc(-c2ccc(C)c3nn(C)cc23)cc1C` [Compound 30, 6-(4-(2,7-dimethyl-2H-indazol-4-yl)-2-methylbenzyl)-6,7-dihydro-5H-pyrrolo[3,4-b]pyridin-5-one-7,7-d2], on human mAChR M1 [1], the half-maximal effective concentration (EC50) came to 1.09 µM and the Emax was determined as 79%. Besides, at human mAChR M1 [2], the EC50 was over 10 µM and the Emax is 22%.

`[2H]C1([2H])c2ncccc2C(=O)N1Cc1c(F)cc(-c2cccc3nn(C([2H])([2H])[2H])cc23)cc1F` [Compound 31, 6-(2,6-Difluoro-4-(2-(methyl-d3)-2H-indazol-4-yl)benzyl)-6,7-dihydro-5H-pyrrolo[3,4-b]pyridin-5-one-7,7-d2]: the EC50 on human mAChR M1 [1] was 0.263 µM; on human mAChR M1 [2], 8.6 µM. Besides, the results for the Emax on human mAChR M1 [1] and at human mAChR M1 [2] were 84% and 28%, respectively.

In the case of `[2H]C1([2H])c2ncccc2C(=O)N1Cc1c(F)cc(-c2cc(C)cc3nn(C)cc23)cc1F` [Compound 32, 6-(4-(2,6-dimethyl-2H-indazol-4-yl)-2,6-difluorobenzyl)-6,7-dihydro-5H-pyrrolo[3,4-b]pyridin-5-one-7,7-d^2], the concentration giving a half-maximal response (EC50) on human mAChR M1 [1] was 0.594 µM; on human mAChR M1 [2] it was 5.46 µM. For the same compound, the Emax was determined as 86% at human mAChR M1 [1] and 16% at human mAChR M1 [2].

Turning to `[2H]C1([2H])c2ncccc2C(=O)N1Cc1ccc(-c2ccc3nn(C)cc3c2)cc1C` [Compound 33, 6-(2-methyl-4-(2-methyl-2H-indazol-5-yl)benzyl)-6,7-dihydro-5H-pyrrolo[3,4-b]pyridin-5-one-7,7-d2], the concentration for a half-maximal effect (EC50) on human mAChR M1 [1] is 0.392 µM; on human mAChR M1 [2], over 10 µM. For the same compound, the Emax on human mAChR M1 [1] was determined as 72%; at human mAChR M1 [2] it was 2%.
